For assay [1], the target named is T1, rat somatostatin receptor subtype 2 (SSTR2) (Rattus norvegicus, UniProt P30680).
T1 construct: expressed in transfected cells; host or cells: Saccharomyces cerevisiae LY364 bearing pJH2 (SSTR2) and pLP82 (G protein)
Put plainly: Yeast assay, somatostatin agonist activity (zone of growth of modified yeast cells). The format is cell-based. Details: key: 1 is minimum agonist activity; 5 is maximum agonist activity; --: When no activity is observed, the result is indicated by a dash. As to conditions: rating on a scale of 1-5 from zone of growth; S. cerevisiae LY364 expressing rat SSTR2. The protocol: (§1) In this evaluation, yeast cells which have been specifically modified to functionally express rat somatostatin receptor subtype 2 (SSTR2) on their cell surfaces are used. S. Cerevisiae LY364 cells are plated in a standard synthetic agar medium which lacks histidine. In the absence of a somatostatin receptor agonist, the auxotrophic (his3) cells are unable to grow. In the presence of somatostatin, or a somatostatin agonist, the expression of an enzyme (His3p: imidazole-glycerol phosphate dehydratase) which is essential for histidine biosynthesis is induced. The cells become competent to produce histidine, resulting in a zone of growing cells around the applied test compound. The zone is measured and the test compound is given an agonist rating on a scale of 1-5 wherein 1 is minimum agonist activity and 5 is maximum agonist activity.
1) Inoculate 2 mL SCD-ura-trp liquid medium in Falcon 2051 tube with a single colony taken from a plate containing LY364 (MATa ura3-52 leu2 his3 trp1 lys2 ade2 far1:: LYS2 fus1:: FUS1-HIS3 gpa1::hisG sst2::.ADE2 bearing the SSTR2 expression plasmid, pJH2, and the G protein expression plasmid, pLP82) cells.
3) Add 1 mL of LY364 culture to 1 liter of agar medium.
8) Incubate plates at 30° C.
Day 5. Begin checking plates for growth around applied compounds.
(§2) Day 7. Growth in response to somatostatin should be readily observable. Rate extent of growth or inhibition of growth according to rating scale described hereinabove.

For assay [2], the target named is T1, rat somatostatin receptor subtype 2 (SSTR2). The experiment in a line: Yeast assay, somatostatin antagonist activity (zone of no growth in presence of S-14). Details: key: 1 is minimum antagonist activity; 5 is maximum antagonist activity; --: When no activity is observed, the result is indicated by a dash. The note with it: rating on a scale of 1-5 from zone of no growth; 5 μL of 1 mg/mL S-14 added to each plate. The format is cell-based. The protocol: as §1
To evaluate the somatostatin antagonist activity of a test compound, the above procedure is followed except on day 3, 5 μL of 1 mg/mL of somatostatin, S-14, is added to each plate, before applying the test compound. If the test compound is an antagonist of somatostatin, then a zone of no growth will appear within the cell growth zone. This zone of no growth is measured and the test compound is given an antagonist rating on a scale of 1-5 wherein 1 is minimum antagonist activity and 5 is maximum antagonist activity.
The results are shown in Table I. When no activity is observed, the result is indicated by a dash.
On day 3, add 5 μL 1 mg/mL S-14 to each plate.
as §2

The next assay addresses SSTR2 (Rattus norvegicus, UniProt P30680). The experiment in a line: Competitive binding, displacement of [125I]Tyr11 S-14. Details: expressed in transfected cells; membrane protein. As to conditions: for Ki: calculated by method of Cheng and Prusoff, read-out: SSTR2 Binding Affinity Ki; for IC50: displacement of [125I]Tyr11 S-14, 250 pM, room temperature, 2 hours, read-out: SSTR2 Binding Affinity IC50. As for the experimental part: In this evaluation the concentration of test compound required to displace 50% of somatostatin, SRIF, from the SRIF receptor subtypes expressed in mammalian cells is measured, i.e., the concentration required to inhibit 50% of [^125 I] Tyr^11 S-14 (Amersham) (IC50) from binding to the SRIF receptor subtypes.
Radiolabeled SRIF is mixed with pituitary cells, the test compound is added, the mixture is incubated and the radioactivity is measured as compared to control. Reduced radioactivity indicates successful competitive binding of the test compound to the pituitary cell receptor. The concentration of the test compound in nanomolar units required to displace 50% of SRIF from the pituitary cell receptor is calculated and reported in Table II as the IC50 value. Also calculated is the inhibitory constant, Ki.
Tyr^11 S-14 (150,000 cpm at 2000 Ci/mmole, 250 pM final concentration). The binding reaction is initiated by adding 2-60 μg of membrane protein in a 170 μL volume. Final reaction volume is 200 μl/well. All incubations are carried out at room temperature for 2 hours. Free radioligand is separated from bound ligand by rapid filtration through a glass fiber filter (IH-201-HA) using an Inotech cell harvester. The filter is then washed several times with cold (4° C.) binding buffer lacking BSA and protease inhibitors prior to counting in an LKB gamma master counter (78% efficiency). Whatman GFC filters presoaked in 0.3% polyethylenimine (to decrease background) are used.
The IC50 values and Ki values are calculated using the well-known methods described by Y. Cheng and W. H. Prusoff, Biochem. Pharmacol. 22, 3099-3108 (1973), incorporated herein by reference thereto.

Positions of bridges follow the written chain, without caps; N, C: chain ends. Non-standard residues stand in square brackets, D forms with d. Residues, ends and D or L forms follow the SMILES beside them. Phe(4-NO2) = N[C@@H](Cc1ccc([N+](=O)[O-])cc1)C(=O)O; 2Nal = N[C@@H](Cc1ccc2ccccc2c1)C(=O)O; d2Nal = N[C@H](Cc1ccc2ccccc2c1)C(=O)O; Orn = NCCC[C@H](N)C(=O)O; Abu = CC[C@H](N)C(=O)O

Sequence of SSTR2 (P30680 whole entry): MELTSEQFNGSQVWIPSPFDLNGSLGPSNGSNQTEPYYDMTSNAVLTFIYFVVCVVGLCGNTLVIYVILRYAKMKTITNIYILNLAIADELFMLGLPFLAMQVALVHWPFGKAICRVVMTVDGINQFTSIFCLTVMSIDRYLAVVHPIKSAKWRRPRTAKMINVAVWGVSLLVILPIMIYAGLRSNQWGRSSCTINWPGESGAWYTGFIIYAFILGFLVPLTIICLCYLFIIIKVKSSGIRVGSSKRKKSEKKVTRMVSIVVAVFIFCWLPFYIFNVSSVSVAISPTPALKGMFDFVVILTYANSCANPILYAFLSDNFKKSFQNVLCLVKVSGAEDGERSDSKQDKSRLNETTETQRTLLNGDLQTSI
T1 sequence (P30680 whole entry): as above

On to `C[C@@H](O)[C@@H]1NC(=O)[C@H](CCCNC(=N)N)NC(=O)[C@@H](Cc2c[nH]c3ccccc23)NC(=O)[C@H](Cc2ccc(O)cc2)NC(=O)[C@H](NC(=O)[C@@H](N)Cc2ccc([N+](=O)[O-])cc2)CSSC[C@@H](C(=O)N[C@@H](Cc2ccc(O)cc2)C(N)=O)NC1=O` [4-NO2 Phe Tyr Arg Thr Tyr] (H-[Phe(4-NO2)][dC]Y[dW]RTCY-NH2; disulfide 2-7 (inferred); N-terminus and C-terminus assumed), for which, in assay [1], the “Yeast Assay Agonist” value is “--”. The “Yeast Assay Antagonist” value in assay [2] was determined as 2. Besides, at SSTR2, the Ki was 25 nM and the half-maximal inhibitory concentration (IC50) stood at 57 nM.
Turning to `CC[C@@H]1NC(=O)[C@H](CCCCN)NC(=O)[C@@H](Cc2c[nH]c3ccccc23)NC(=O)[C@H](Cc2ccc(O)cc2)NC(=O)[C@H](NC(=O)[C@@H](N)Cc2ccc([N+](=O)[O-])cc2)CSSC[C@@H](C(=O)N[C@@H](Cc2ccc(O)cc2)C(N)=O)NC1=O` [4-NO2 Phe Tyr Lys Abu Tyr] (H-[Phe(4-NO2)][dC]Y[dW]K[Abu]CY-NH2; disulfide 2-7), the “Yeast Assay Agonist” value in assay [1] is reported as “--”. Also, in assay [2], the “Yeast Assay Antagonist” value came out at 3. On SSTR2, the Ki was 1.78 nM and the IC50 is 4 nM.
Regarding `C[C@@H](O)[C@@H]1NC(=O)[C@H](CCCCN)NC(=O)[C@@H](Cc2c[nH]c3ccccc23)NC(=O)[C@H](Cc2ccc(O)cc2)NC(=O)[C@H](NC(=O)[C@@H](N)Cc2ccc([N+](=O)[O-])cc2)CSSC[C@@H](C(=O)N[C@H](Cc2ccc(O)cc2)C(N)=O)NC1=O` [4-NO2 Phe Tyr Lys Thr D-Tyr], in assay [1], the “Yeast Assay Agonist” value is on record as “--”. Moreover, the “Yeast Assay Antagonist” value in assay [2] worked out at 4. Also, at SSTR2, the Ki is 1.5 nM and the IC50 amounted to 3 nM.
In the case of `C[C@@H](O)[C@@H]1NC(=O)[C@H](CCCCN)NC(=O)[C@@H](Cc2c[nH]c3ccccc23)NC(=O)[C@H](Cc2ccc(O)cc2)NC(=O)[C@H](NC(=O)[C@@H](N)Cc2ccc([N+](=O)[O-])cc2)CSSC[C@@H](C(=O)N[C@@H](Cc2ccc(O)cc2)C(N)=O)NC1=O` [4-NO2 Phe Tyr Lys Thr Tyr], the “Yeast Assay Agonist” value in assay [1] is on record as “--”. Further, the “Yeast Assay Antagonist” value in assay [2] came to 5. On SSTR2, the Ki was 1.33 nM and the half-maximal inhibitory concentration (IC50) amounted to 3 nM.
With `CC(C)[C@@H]1NC(=O)[C@H](CCCCN)NC(=O)[C@@H](Cc2c[nH]c3ccccc23)NC(=O)[C@H](Cc2ccc(O)cc2)NC(=O)[C@H](NC(=O)[C@@H](N)Cc2ccc([N+](=O)[O-])cc2)CSSC[C@@H](C(=O)N[C@@H](Cc2ccc3ccccc3c2)C(N)=O)NC1=O` [4-NO2 Phe Tyr Lys Val Nal(2)] (H-[Phe(4-NO2)][dC]Y[dW]KVC[2Nal]-NH2; disulfide 2-7 (inferred); N-terminus and C-terminus assumed), in assay [1], the “Yeast Assay Agonist” value is “--”. In addition, the “Yeast Assay Antagonist” value in assay [2] is recorded as 2. In addition, on SSTR2, the Ki is 3.1 nM and the IC50 came to 7 nM.
On to `CC(C)[C@@H]1NC(=O)[C@H](CCCCN)NC(=O)[C@@H](Cc2c[nH]c3ccccc23)NC(=O)[C@H](Cc2ccc(O)cc2)NC(=O)[C@H](NC(=O)[C@@H](N)Cc2ccc([N+](=O)[O-])cc2)CSSC[C@@H](C(=O)N[C@@H](Cc2ccc(O)cc2)C(N)=O)NC1=O` [4-NO2 Phe Tyr Lys Val Tyr] (H-[Phe(4-NO2)][dC]Y[dW]KVCY-NH2; disulfide 2-7 (inferred); N-terminus and C-terminus assumed), for which the “Yeast Assay Agonist” value in assay [1] is given as “--”. Further, the “Yeast Assay Antagonist” value in assay [2] was found to be 5. At SSTR2, the Ki was 12.9 nM and the IC50 is 29 nM.
As for `CC(C)[C@@H]1NC(=O)[C@H](CCCN)NC(=O)[C@@H](Cc2c[nH]c3ccccc23)NC(=O)[C@H](Cc2ccc(O)cc2)NC(=O)[C@H](NC(=O)[C@@H](N)Cc2ccc([N+](=O)[O-])cc2)CSSC[C@@H](C(=O)N[C@@H](Cc2ccc(O)cc2)C(N)=O)NC1=O` [4-NO2 Phe Tyr Orn Val Tyr] (H-[Phe(4-NO2)][dC]Y[dW][Orn]VCY-NH2; disulfide 2-7 (inferred); N-terminus and C-terminus assumed), the “Yeast Assay Agonist” value in assay [1] is “--”. In addition, the “Yeast Assay Antagonist” value in assay [2] came to 1.
Taken in the same sequence, the figures for `CC(=O)N[C@@H](Cc1ccc(I)cc1)C(=O)N[C@@H]1CSSC[C@@H](C(=O)N[C@H](Cc2ccc(O)cc2)C(N)=O)NC(=O)[C@H]([C@@H](C)O)NC(=O)[C@H](CCCCN)NC(=O)[C@@H](Cc2c[nH]c3ccccc23)NC(=O)[C@H](Cc2ccc(O)cc2)NC1=O` [Ac-4-IPhe Tyr Lys Thr D-Tyr] were “--” and 4.
On to `CC(=O)N[C@@H](Cc1ccc([N+](=O)[O-])cc1)C(=O)N[C@@H]1CSSC[C@@H](C(=O)N[C@H](Cc2ccc(O)cc2)C(N)=O)NC(=O)[C@H]([C@@H](C)O)NC(=O)[C@H](CCCCN)NC(=O)[C@@H](Cc2c[nH]c3ccccc23)NC(=O)[C@H](Cc2ccc(O)cc2)NC1=O` [Ac-4-NO2 Phe Tyr Lys Thr D-Tyr], for which the “Yeast Assay Agonist” value in assay [1] was “--”. Further, the “Yeast Assay Antagonist” value in assay [2] is on record as 4. At SSTR2, the inhibition constant (Ki) is 0.3 nM and the IC50 amounted to 0.7 nM.
Taken in the same sequence, the figures for `CC(=O)N[C@@H](Cc1ccc2ccccc2c1)C(=O)N[C@@H]1CSSC[C@@H](C(=O)N[C@@H](Cc2ccc(O)cc2)C(N)=O)NC(=O)[C@H]([C@@H](C)O)NC(=O)[C@H](CCCCN)NC(=O)[C@@H](Cc2c[nH]c3ccccc23)NC(=O)[C@H](Cc2ccc(O)cc2)NC1=O` [Ac-Nal(2) Tyr Lys Thr Tyr] (Ac-[2Nal][dC]Y[dW]KTCY-NH2; disulfide 2-7 (inferred); N-terminus and C-terminus assumed) were “--”, 1, 0.48 nM and 1 nM.
As for `CC(C)[C@@H]1NC(=O)[C@H](CCCCN)NC(=O)[C@@H](Cc2c[nH]c3ccccc23)NC(=O)[C@H](Cc2ccc(O)cc2)NC(=O)[C@H](NC(=O)[C@H](N)Cc2ccc3ccccc3c2)CSSC[C@@H](C(=O)N[C@@H](Cc2ccc(O)cc2)C(N)=O)NC1=O` [D-Nal(2) Tyr Lys Val Tyr] (H-[d2Nal][dC]Y[dW]KVCY-NH2; disulfide 2-7), the “Yeast Assay Agonist” value in assay [1] is “--”. In addition, the “Yeast Assay Antagonist” value in assay [2] came to 2. Besides, at SSTR2, the inhibitory constant (Ki) was 0.89 nM and the IC50 came out at 2 nM.
Taken in the same sequence, the figures for `C[C@@H](O)[C@@H]1NC(=O)[C@H](CCCCN)NC(=O)[C@@H](Cc2c[nH]c3ccccc23)NC(=O)[C@H](Cc2ccc(O)cc2)NC(=O)[C@H](NC(=O)[C@@H](N)Cc2ccc3ccccc3c2)CSSC[C@@H](C(=O)N[C@@H](Cc2ccc(O)cc2)C(N)=O)NC1=O` [L-Nal(2) Tyr Lys Thr Tyr] (H-[2Nal][dC]Y[dW]KTCY-NH2; disulfide 2-7 (inferred); N-terminus and C-terminus assumed) were “--”, 1, 0.4 nM and 0.9 nM.

The term Ki denotes the dissociation constant of the complex between target and ligand, obtained from inhibition or displacement. One may read the IC50 as the concentration that inhibits the measured activity by half.

Values taken from patent US5846934A, “Pure somatostatin antagonist and methods of use thereof” (American Cyanamid Company, priority 1997, dated 1998).
